Read-outs that look alike come from different tables or passages of the source.
What was measured:
[1] = target: full-length human PLD1 (Homo sapiens (Human), UniProt Q13393); assay: Evaluation of human PLD1 enzyme inhibitory activity (Amplex Red / choline oxidase fluorescence); format: biochemical
How it was run: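 N-terminally FLAG-tagged full-length human PLD1 (1-1036), expressed in Expi293F and FLAG-purified, incubated with compound (5% DMSO final) and 1,2-diheptanoyl-sn-glycero-3-phosphocholine for 60 min at room temperature in HEPES pH 7.5 buffer. Released choline detected by Amplex Red/choline oxidase/HRP fluorescence.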

[2] = target: full-length human PLD2 (Homo sapiens (Human), UniProt O14939); assay: Evaluation of human PLD2 enzyme inhibitory activity (Amplex Red / choline oxidase fluorescence); format: biochemical
How it was run: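 Enzyme was N-terminal FLAG-tagged full-length human PLD2 (1-933), expressed in Expi293F cells and anti-FLAG purified. Compound (5% DMSO final) was incubated with enzyme (6 nmol/L solution) and 1,2-diheptanoyl-PC (6 mmol/L solution) in HEPES pH 7.5, KCl, EGTA, MgCl2, NP-40, BSA buffer for 60 min at room temperature. Choline was detected with Amplex Red/choline oxidase/HRP.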

[3] = full-length human PLD1 enzyme, read-out: PLD1 IC50
[4] = full-length human PLD2 enzyme, read-out: PLD2 IC50
[5] = column 1 of continuation tables 2-12 to 2-14, read-out: human PLD1 enzyme inhibitory activity IC50
[6] = column 2 of continuation tables 2-12 to 2-14, read-out: human PLD2 enzyme inhibitory activity IC50

Chain of full-length human PLD1 (Q13393 other isoform, or with tags, fused parts or gaps): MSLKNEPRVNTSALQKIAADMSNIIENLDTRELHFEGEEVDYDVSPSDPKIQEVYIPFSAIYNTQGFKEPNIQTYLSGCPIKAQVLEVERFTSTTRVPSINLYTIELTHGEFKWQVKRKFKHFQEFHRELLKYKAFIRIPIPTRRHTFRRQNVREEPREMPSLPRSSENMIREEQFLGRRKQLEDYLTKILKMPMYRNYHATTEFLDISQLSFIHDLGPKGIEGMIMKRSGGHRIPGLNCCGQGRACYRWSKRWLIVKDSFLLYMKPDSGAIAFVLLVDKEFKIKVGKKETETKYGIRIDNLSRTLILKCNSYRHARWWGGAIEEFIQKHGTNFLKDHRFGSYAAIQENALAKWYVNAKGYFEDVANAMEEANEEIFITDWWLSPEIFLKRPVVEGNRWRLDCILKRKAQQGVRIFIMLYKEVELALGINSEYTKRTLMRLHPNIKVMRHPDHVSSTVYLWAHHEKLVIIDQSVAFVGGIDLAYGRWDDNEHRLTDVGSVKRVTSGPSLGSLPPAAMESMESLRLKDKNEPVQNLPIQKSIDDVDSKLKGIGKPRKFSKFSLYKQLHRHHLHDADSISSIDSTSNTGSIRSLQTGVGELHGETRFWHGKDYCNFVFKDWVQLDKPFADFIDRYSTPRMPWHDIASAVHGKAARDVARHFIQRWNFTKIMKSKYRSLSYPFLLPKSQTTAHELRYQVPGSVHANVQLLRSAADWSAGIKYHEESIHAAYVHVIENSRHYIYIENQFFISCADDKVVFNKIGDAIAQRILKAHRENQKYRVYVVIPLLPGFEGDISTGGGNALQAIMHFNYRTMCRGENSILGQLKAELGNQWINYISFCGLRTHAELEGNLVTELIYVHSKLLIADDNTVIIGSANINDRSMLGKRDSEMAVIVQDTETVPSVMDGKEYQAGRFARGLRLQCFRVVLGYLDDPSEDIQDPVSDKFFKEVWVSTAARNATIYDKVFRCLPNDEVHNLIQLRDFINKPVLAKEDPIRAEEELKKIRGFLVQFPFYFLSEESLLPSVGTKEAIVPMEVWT
Chain of full-length human PLD2 (O14939 whole entry): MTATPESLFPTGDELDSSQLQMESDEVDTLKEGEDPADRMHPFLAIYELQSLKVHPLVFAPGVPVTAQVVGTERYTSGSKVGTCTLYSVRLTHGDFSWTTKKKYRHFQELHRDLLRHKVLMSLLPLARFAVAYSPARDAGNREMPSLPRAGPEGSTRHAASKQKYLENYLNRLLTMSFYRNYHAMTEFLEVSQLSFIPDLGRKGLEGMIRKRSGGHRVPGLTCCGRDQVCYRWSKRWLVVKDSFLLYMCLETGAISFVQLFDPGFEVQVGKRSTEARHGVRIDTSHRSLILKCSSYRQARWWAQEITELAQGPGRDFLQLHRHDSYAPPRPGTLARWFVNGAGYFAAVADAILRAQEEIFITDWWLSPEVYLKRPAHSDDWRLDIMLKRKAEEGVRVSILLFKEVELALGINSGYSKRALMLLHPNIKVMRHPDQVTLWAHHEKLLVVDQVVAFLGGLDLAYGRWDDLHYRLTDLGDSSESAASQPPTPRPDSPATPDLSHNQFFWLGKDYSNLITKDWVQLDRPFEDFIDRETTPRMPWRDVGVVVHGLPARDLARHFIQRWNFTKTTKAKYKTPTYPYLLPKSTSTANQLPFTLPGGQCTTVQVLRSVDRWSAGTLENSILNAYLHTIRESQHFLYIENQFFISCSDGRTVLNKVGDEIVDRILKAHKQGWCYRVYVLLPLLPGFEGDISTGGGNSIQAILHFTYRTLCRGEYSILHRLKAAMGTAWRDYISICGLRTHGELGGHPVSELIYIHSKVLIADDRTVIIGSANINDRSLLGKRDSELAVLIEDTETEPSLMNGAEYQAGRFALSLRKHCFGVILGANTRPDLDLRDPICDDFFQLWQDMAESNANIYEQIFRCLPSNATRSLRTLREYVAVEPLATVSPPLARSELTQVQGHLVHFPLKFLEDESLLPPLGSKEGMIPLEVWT

Row | Compound | IC50 [1, 3] [nM] | IC50 [2, 4] [nM] | also measured
1 | C[C@@H](C[C@H]1CC[C@]2(CC1)OC(=O)NN=C2c1ccc(F)cc1Br)NC(=O)c1ccccc1 [Example 40] | 13 | < 10 | –
2 | C[C@@H](C[C@H]1CC[C@]2(CC1)OC(=O)NN=C2c1ccc(F)cc1I)NC(=O)C(=O)NC1CC1 [Example 177] | 10 | < 10 | –
3 | C[C@@H](C[C@H]1CC[C@]2(CC1)OC(=O)NN=C2c1cccc(C#N)c1Br)NC(=O)c1cnn(C)c1 [Example 318] | 37 | 41 | –
4 | [2H]C([2H])([2H])NC(=O)C(=O)N[C@@H](C)CN1CCC2(CC1)OC(=O)NN=C2c1cc(C#N)c(F)cc1Br [Example 2-004] | 68 | < 10 | –
5 | C[C@@H](CN1CCC2(CC1)OC(=O)NN=C2c1ccc(S(C)(=O)=O)cc1Cl)NC(=O)c1cc2cc(F)ccc2o1 [Example 116] | 43 | 37 | –
6 | [2H]C([2H])([2H])NC(=O)C(=O)N[C@@H](C)C[C@]1(C#N)CC[C@@]2(CC1)OC(=O)NN=C2c1cc(OC(F)(F)F)ccc1Br [Example 2-132] | – | – | IC50 [1, 5]: 11 nM; IC50 [2, 6]: < 10 nM
7 | CNC(=O)C(=O)N[C@@H](C)C[C@H]1CC[C@]2(CC1)OC(=O)NN=C2c1ccc(F)cc1Cl [Example 44] | 18 | < 10 | –
8 | Cc1cc(Br)ccc1C1=NNC(=O)O[C@]12CC[C@@H](C[C@H](C)NC(=O)NC1CC1)CC2 [Example 210] | 296 | 1090 | –
9 | CNC(=O)C(=O)N[C@@H](C)C[C@H]1CC[C@]2(CC1)OC(=O)NN=C2c1ccc(OC(F)F)cc1Br [Example 140] | < 10 | < 10 | –
10 | [2H]C([2H])([2H])NC(=O)C(=O)N[C@@H](C)C[C@]1(C#N)CC[C@@]2(CC1)OC(=O)NN=C2c1cc(F)c(F)cc1Br [Example 2-140] | – | – | IC50 [1, 5]: 17 nM; IC50 [2, 6]: < 10 nM
11 | CNC(=O)C(=O)N[C@@H](C)C[C@]1(C#N)CC[C@@]2(CC1)OC(=O)NN=C2c1cc(OC(F)(F)F)ccc1Br [Example 2-080] | < 10 | < 10 | –
12 | C[C@@H](C[C@H]1CC[C@]2(CC1)OC(=O)NN=C2c1ccc(F)cc1Br)NC(=O)C1CC1c1ccccc1 (single isomer, unassigned) [Example 38] | 35 | 88 | –
13 | CNC(=O)C(=O)N[C@@H](C)C[C@H]1CC[C@]2(CC1)OC(=O)NN=C2c1cc(C(=O)OC)ccc1Br [Example 2-032] | 11 | < 10 | –
14 | Cc1cc(C(=O)N[C@@H](C)C[C@H]2CC[C@]3(CC2)OC(=O)NN=C3c2ccc(C#N)cc2C)[nH]n1 [Example 153] | 27 | 28 | –
15 | CNC(=O)C(=O)N[C@@H](C)CN1CCC2(CC1)OC(=O)NN=C2c1ccccc1SC(F)(F)F [Example 2-021] | 27 | 15 | –
16 | Cc1cc(C(=O)N[C@@H](C)CN2CCC3(CC2)OC(=O)NN=C3c2ccc(C#N)cc2Cl)[nH]n1 [Example 169] | 34 | 20 | –
17 | CNC(=O)C(=O)NC[C@H](C)N1CCC2(CC1)OC(=O)NN=C2c1ccc(C#N)cc1Br [Example 329] | 51 | < 10 | –
18 | CNC(=O)C(=O)N[C@@H](C)CN1CCC2(CC1)OC(=O)NN=C2c1ccc(C#N)cc1Br [Example 206] | 36 | 13 | –
19 | CNC(=O)C(=O)N[C@@H](C)C[C@H]1CC[C@]2(CC1)OC(=O)NN=C2c1cnc(N2CC(F)(F)C2)cc1C [Example 228] | 28 | < 10 | –
20 | C[C@@H](C[C@H]1CC[C@]2(CC1)OC(=O)NN=C2c1ccc(F)cc1Br)NC(=O)C1(F)CC1 [Example 35] | 257 | 367 | –
21 | C[C@@H](C[C@H]1CC[C@]2(CC1)OC(=O)NN=C2c1ccc(F)cc1)NC(=O)c1cc2cc(F)ccc2[nH]1 [Example 4] | 36 | 11 | –
22 | CNC(=O)C(=O)N[C@@H](C)CN1CCC2(CC1)OC(=O)NN=C2c1ccc(F)cc1Cl [Example 90] | 45 | 18 | –
23 | C[C@@H](CN1CCC2(CC1)OC(=O)NN=C2c1cc(C#N)ccc1Br)NC(=O)/C=C\C(=O)O [Example 2-047] | – | – | inhibition at 10 µM ([1]; 10 μM compound, read-out: PLD1 inhibition rate at 10 μM): 32%; inhibition at 10 µM ([1]; read-out: inhibition rate of PLD1 at 10 μM compound): 32%; inhibition at 10 µM ([2]; 10 μM compound, read-out: PLD2 inhibition rate at 10 μM): 34%; inhibition at 10 µM ([2]; read-out: inhibition rate of PLD2 at 10 μM compound): 34%
24 | Cc1cc(C(=O)N[C@@H](C)C[C@H]2CC[C@]3(CC2)OC(=O)NN=C3c2cc(OC(F)F)ccc2Br)[nH]n1 [Example 214] | < 10 | < 10 | –
25 | Cc1cc(C(=O)N[C@@H](C)C[C@]2(F)CC[C@@]3(CC2)OC(=O)NN=C3c2cc(C#N)ccc2Br)[nH]n1 [Example 311] | 15 | < 10 | –
